For 18 compounds, IC50 results are on record in ChEMBL document CHEMBL1134520, “Potent somatostatin undecapeptide agonists selective for somatostatin receptor 1 (sst1)” (J Med Chem, 2001).

The target of assay [1] is Somatostatin receptor type 1 (Homo sapiens, UniProt P30872). Put plainly: Tested for ability to bind to 20 uM thick cryostat sections of a membrane pellet of cells transfected with human cloned somatostatin (sst) receptor subtype 1.
Assay [2] concerns the target Somatostatin receptor type 4 (Homo sapiens, UniProt P31391). Put plainly: Tested for ability to bind to 20 uM thick cryostat sections of a membrane pellet of cells transfected with human cloned somatostatin (sst) receptor subtype 4.
The target of assay [3] is Somatostatin receptor type 5 (Homo sapiens, UniProt P35346). Put plainly: Tested for ability to bind to 20 uM thick cryostat sections of a membrane pellet of cells transfected with human cloned somatostatin (sst) receptor subtype 5.
In assay [4] the target is Somatostatin receptor type 2 (Homo sapiens, UniProt P30874). The assay is described as follows: Tested for ability to bind to 20 uM thick cryostat sections of a membrane pellet of cells transfected with human cloned somatostatin (sst) receptor subtype 2.
For assay [5], the target named is Somatostatin receptor type 3 (Homo sapiens, UniProt P32745). Put plainly: Tested for ability to bind to 20 uM thick cryostat sections of a membrane pellet of cells transfected with human cloned somatostatin (sst) receptor subtype 3.

Bridge positions count the residues as written; N and C are the ends. Square brackets hold non-standard residues; d marks the D form. Peptide text beside a SMILES is read from it. Phe(4-CH2NHiPr) = CC(C)NCc1ccc(C[C@H](N)C(=O)O)cc1

Chain of Somatostatin receptor type 2 (P30874 whole entry): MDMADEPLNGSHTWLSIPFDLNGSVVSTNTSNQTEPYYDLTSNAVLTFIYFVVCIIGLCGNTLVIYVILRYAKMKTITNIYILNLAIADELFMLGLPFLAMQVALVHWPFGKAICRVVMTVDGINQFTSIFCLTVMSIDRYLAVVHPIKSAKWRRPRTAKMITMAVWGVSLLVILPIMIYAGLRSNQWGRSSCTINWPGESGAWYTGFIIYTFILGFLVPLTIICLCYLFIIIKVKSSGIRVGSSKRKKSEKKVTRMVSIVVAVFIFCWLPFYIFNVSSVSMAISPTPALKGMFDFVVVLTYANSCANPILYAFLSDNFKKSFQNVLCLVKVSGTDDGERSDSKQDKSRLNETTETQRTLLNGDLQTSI
Chain of Somatostatin receptor type 3 (P32745 whole entry): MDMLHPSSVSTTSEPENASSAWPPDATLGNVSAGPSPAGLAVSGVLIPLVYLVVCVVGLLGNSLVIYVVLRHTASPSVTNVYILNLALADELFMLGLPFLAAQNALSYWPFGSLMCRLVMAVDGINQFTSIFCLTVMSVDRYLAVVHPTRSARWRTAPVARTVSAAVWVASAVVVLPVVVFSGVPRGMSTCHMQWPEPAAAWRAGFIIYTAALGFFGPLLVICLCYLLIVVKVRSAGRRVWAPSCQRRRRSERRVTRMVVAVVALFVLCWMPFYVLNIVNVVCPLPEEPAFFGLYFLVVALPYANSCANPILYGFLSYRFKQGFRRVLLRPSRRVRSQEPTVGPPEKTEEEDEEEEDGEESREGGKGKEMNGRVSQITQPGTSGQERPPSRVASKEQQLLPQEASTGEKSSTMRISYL
Chain of Somatostatin receptor type 5 (P35346 whole entry): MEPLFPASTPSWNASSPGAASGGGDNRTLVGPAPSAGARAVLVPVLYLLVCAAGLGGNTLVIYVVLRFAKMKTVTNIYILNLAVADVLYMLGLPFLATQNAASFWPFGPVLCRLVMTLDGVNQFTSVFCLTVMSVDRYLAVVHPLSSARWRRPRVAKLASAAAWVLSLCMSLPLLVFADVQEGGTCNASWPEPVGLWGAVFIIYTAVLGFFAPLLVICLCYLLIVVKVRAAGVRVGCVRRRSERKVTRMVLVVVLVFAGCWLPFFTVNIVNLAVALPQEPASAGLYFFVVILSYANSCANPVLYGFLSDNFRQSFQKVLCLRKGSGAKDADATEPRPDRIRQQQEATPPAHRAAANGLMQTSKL
Chain of Somatostatin receptor type 1 (P30872 whole entry): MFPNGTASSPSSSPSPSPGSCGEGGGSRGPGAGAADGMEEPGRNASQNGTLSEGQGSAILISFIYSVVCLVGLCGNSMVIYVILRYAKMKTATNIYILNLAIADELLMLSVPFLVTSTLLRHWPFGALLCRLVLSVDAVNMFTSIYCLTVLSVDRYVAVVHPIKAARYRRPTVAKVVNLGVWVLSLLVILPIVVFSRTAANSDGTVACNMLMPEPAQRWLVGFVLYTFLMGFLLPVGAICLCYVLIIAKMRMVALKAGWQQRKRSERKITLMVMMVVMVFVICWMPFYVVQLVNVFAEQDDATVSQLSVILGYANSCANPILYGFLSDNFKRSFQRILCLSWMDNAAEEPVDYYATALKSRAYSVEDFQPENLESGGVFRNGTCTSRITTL
Chain of Somatostatin receptor type 4 (P31391 whole entry): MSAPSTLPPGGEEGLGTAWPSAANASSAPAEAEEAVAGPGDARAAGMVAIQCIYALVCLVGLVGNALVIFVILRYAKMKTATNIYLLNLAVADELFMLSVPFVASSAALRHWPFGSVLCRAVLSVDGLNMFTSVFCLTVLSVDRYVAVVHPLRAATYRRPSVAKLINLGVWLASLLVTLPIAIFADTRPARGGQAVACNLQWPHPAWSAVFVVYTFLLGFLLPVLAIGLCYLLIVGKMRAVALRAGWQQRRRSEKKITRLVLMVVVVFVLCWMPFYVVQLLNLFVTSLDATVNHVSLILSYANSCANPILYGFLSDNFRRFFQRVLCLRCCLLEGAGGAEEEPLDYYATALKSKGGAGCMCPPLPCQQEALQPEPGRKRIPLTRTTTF

With `CC(C)NCc1ccc(C[C@@H]2NC(=O)[C@@H](Cc3ccc4ccccc4c3)NC(=O)[C@H](Cc3ccccc3)NC(=O)[C@H](Cc3ccccc3)NC(=O)[C@H](CCCCN)NC(=O)[C@H](NC(=O)CCc3ccc(O)cc3)CSSC[C@H](C(=O)O)NC(=O)[C@H](CO)NC(=O)[C@H]([C@@H](C)O)NC(=O)[C@H](Cc3ccccc3)NC(=O)[C@H]([C@@H](C)O)NC2=O)cc1`, the IC50 in assay [1], in assay [2], in assay [3], in assay [4] and in assay [5] was above 1000 nM throughout.

For the compound `CC(C)NCc1ccc(C[C@@H]2NC(=O)[C@@H](Cc3ccc4ccccc4c3)NC(=O)[C@H](Cc3ccccc3)NC(=O)[C@H](Cc3ccccc3)NC(=O)[C@H](CCCCN)NC(=O)[C@@H](NC(=O)CCc3ccc(O)cc3)CSSC[C@@H](C(=O)O)NC(=O)[C@H](CO)NC(=O)[C@H]([C@@H](C)O)NC(=O)[C@H](Cc3ccccc3)NC(=O)[C@H]([C@@H](C)O)NC2=O)cc1`, the 50% inhibitory concentration (IC50) (as a rule, the point on the concentration scale where inhibition reaches its midpoint) in assay [1] is 563 nM; in assay [2], above 10000 nM; in assay [3] it was above 10000 nM; in assay [4], above 1000 nM; in assay [5], above 1000 nM.

As for `C[C@@H](O)[C@@H]1NC(=O)[C@H](Cc2ccccc2)NC(=O)[C@H]([C@@H](C)O)NC(=O)[C@H](CCCCN)NC(=O)[C@@H](Cc2c[nH]c3ccccc23)NC(=O)[C@H](Cc2ccccc2)NC(=O)[C@H](Cc2ccccc2)NC(=O)[C@H](CC(N)=O)NC(=O)[C@H](CCCCN)NC(=O)[C@@H](N)CSSC[C@@H](C(=O)O)NC(=O)[C@H](CO)NC1=O`, the IC50 in assay [1] was found to be 5.4 nM; in assay [2], 3.5 nM; in assay [3], 16.7 nM; in assay [4], 0.33 nM; in assay [5], 4.3 nM.

With `CC(C)NCc1ccc(C[C@@H]2NC(=O)[C@@H](Cc3c[nH]c4ccccc34)NC(=O)[C@H](Cc3ccccc3)NC(=O)[C@H](Cc3ccccc3)NC(=O)[C@H](CCCCN)NC(=O)[C@H](NC(=O)[C@@H](N)Cc3ccc(O)cc3)CSSC[C@@H](C(=O)O)NC(=O)[C@H](CO)NC(=O)[C@H]([C@@H](C)O)NC(=O)[C@H](Cc3ccccc3)NC(=O)[C@H]([C@@H](C)O)NC2=O)cc1`, the IC50 in assay [2] was above 1000 nM; in assay [4], above 10000 nM; in assay [5] it was above 1000 nM.

For the compound `C[C@@H](O)[C@@H]1NC(=O)[C@H](Cc2ccccc2)NC(=O)[C@H]([C@@H](C)O)NC(=O)[C@H](Cc2ccc(Nc3nnc(N)[nH]3)cc2)NC(=O)[C@@H](Cc2c[nH]c3ccccc23)NC(=O)[C@H](Cc2ccccc2)NC(=O)[C@H](Cc2ccccc2)NC(=O)[C@H](CCCCN)NC(=O)[C@@H](N)CSSC[C@@H](C(=O)O)NC(=O)[C@H](CO)NC1=O`, the IC50 in assay [1] was above 1000 nM; in assay [2], above 10000 nM; in assay [3], above 10000 nM; in assay [4], above 10000 nM; in assay [5], above 10000 nM.

Take `CCN=C(NCC)NCCCC[C@@H]1NC(=O)[C@@H](Cc2c[nH]c3ccccc23)NC(=O)[C@H](Cc2ccccc2)NC(=O)[C@H](Cc2ccccc2)NC(=O)[C@H](CCCCN)NC(=O)[C@@H](N)CSSC[C@@H](C(=O)O)NC(=O)[C@H](CO)NC(=O)[C@H]([C@@H](C)O)NC(=O)[C@H](Cc2ccccc2)NC(=O)[C@H]([C@@H](C)O)NC1=O`: the IC50 in assay [1] is 450 nM; in assay [2], above 1000 nM; in assay [3], above 10000 nM; in assay [4], above 10000 nM; in assay [5], above 1000 nM.

Turning to `CC(C)NCc1ccc(C[C@@H]2NC(=O)[C@@H](Cc3ccc4ccccc4c3)NC(=O)[C@H](Cc3ccccc3)NC(=O)[C@H](Cc3ccccc3)NC(=O)[C@H](CCCCN)NC(=O)[C@@H](NC(=O)[C@@H](N)Cc3ccc(O)cc3)CSSC[C@@H](C(=O)O)NC(=O)[C@H](CO)NC(=O)[C@H]([C@@H](C)O)NC(=O)[C@H](Cc3ccccc3)NC(=O)[C@H]([C@@H](C)O)NC2=O)cc1`, the IC50 in assay [1] was 24 nM; in assay [2], above 1000 nM; in assay [3] it was above 1000 nM; in assay [4] it was above 1000 nM; in assay [5], 633 nM.

Consider `CC(C)NCc1ccc(C[C@@H]2NC(=O)[C@@H](Cc3c[nH]c4ccccc34)NC(=O)[C@H](Cc3ccc(O)cc3)NC(=O)[C@H](Cc3ccccc3)NC(=O)[C@H](CCCCN)NC(=O)[C@@H](N)CSSC[C@@H](C(=O)O)NC(=O)[C@H](CO)NC(=O)[C@H]([C@@H](C)O)NC(=O)[C@H](Cc3ccccc3)NC(=O)[C@H]([C@@H](C)O)NC2=O)cc1`, for which the IC50 in assay [1] is 530 nM; in assay [2] it was above 10000 nM; in assay [3] it was above 1000 nM; in assay [4], above 10000 nM; in assay [5], above 10000 nM.

Turning to `CC(C)NCc1ccc(C[C@@H]2NC(=O)[C@@H](Cc3cn(Cc4ccccc4)cn3)NC(=O)[C@H](Cc3ccccc3)NC(=O)[C@H](Cc3ccccc3)NC(=O)[C@H](CCCCN)NC(=O)[C@@H](N)CSSC[C@@H](C(=O)O)NC(=O)[C@H](CO)NC(=O)[C@H]([C@@H](C)O)NC(=O)[C@H](Cc3ccccc3)NC(=O)[C@H]([C@@H](C)O)NC2=O)cc1`, the IC50 in assay [1] is above 1000 nM; in assay [2], above 10000 nM; in assay [3], above 10000 nM; in assay [4], above 1000 nM; in assay [5], above 1000 nM.

With `CC(C)CN(Cc1ccc(C[C@@H]2NC(=O)[C@@H](Cc3c[nH]c4ccccc34)NC(=O)[C@H](Cc3ccccc3)NC(=O)[C@H](Cc3ccccc3)NC(=O)[C@H](CCCCN)NC(=O)[C@@H](N)CSSC[C@@H](C(=O)O)NC(=O)[C@H](CO)NC(=O)[C@H]([C@@H](C)O)NC(=O)[C@H](Cc3ccccc3)NC(=O)[C@H]([C@@H](C)O)NC2=O)cc1)CC(C)C`, the half-inhibitory concentration (IC50) is above 1000 nM in assay [1]; above 10000 nM in assay [2]; above 10000 nM in assay [3]; above 10000 nM in assay [4]; above 10000 nM in assay [5].

For `CC(C)NCc1ccc(C[C@@H]2NC(=O)[C@@H](Cc3c[nH]c4ccccc34)NC(=O)[C@H](Cc3ccccc3)NC(=O)[C@H](Cc3ccccc3)NC(=O)[C@@H](NC(=O)[C@@H](N)Cc3ccc(O)cc3)CSSC[C@@H](C(=O)O)NC(=O)[C@H]([C@@H](C)O)NC(=O)[C@H](Cc3ccccc3)NC(=O)[C@H]([C@@H](C)O)NC2=O)cc1`, the half-maximal inhibitory concentration (IC50) in assay [1] was 720 nM; in assay [2] it was above 1000 nM; in assay [4], above 10000 nM; in assay [5], 445 nM.

For the compound `CNCc1ccc(C[C@@H]2NC(=O)[C@@H](Cc3ccc4ccccc4c3)NC(=O)[C@H](Cc3ccccc3)NC(=O)[C@H](Cc3ccccc3)NC(=O)[C@H](CCCCN)NC(=O)[C@@H](N)CSSC[C@@H](C(=O)O)NC(=O)[C@H](CO)NC(=O)[C@H]([C@@H](C)O)NC(=O)[C@H](Cc3ccccc3)NC(=O)[C@H]([C@@H](C)O)NC2=O)cc1`, the IC50 was 101 nM in assay [1]; above 10000 nM in assay [2]; above 1000 nM in assay [3]; 556 nM in assay [4]; 280 nM in assay [5].

In the case of `CC(C)NCc1ccc(C[C@@H]2NC(=O)[C@@H](Cc3c[nH]c4ccccc34)NC(=O)[C@H](Cc3ccccc3)NC(=O)[C@H](Cc3ccccc3)NC(=O)[C@H](CCCCN)NC(=O)[C@@H](NC(=O)[C@@H](N)Cc3ccc(O)cc3)CSSC[C@@H](C(=O)O)NC(=O)[C@H](CO)NC(=O)[C@H]([C@@H](C)O)NC(=O)[C@H](Cc3ccccc3)NC(=O)[C@H]([C@@H](C)O)NC2=O)cc1`, the IC50 is above 10000 nM in assay [2] and 713 nM in assay [5].

`C[C@@H](O)[C@@H]1NC(=O)[C@H](CCCCN)NC(=O)[C@@H](Cc2c[nH]c3ccccc23)NC(=O)[C@H](Cc2ccccc2)NC(=O)[C@H](Cc2ccccc2)NC(=O)[C@@H](N)CSSC[C@@H](C(=O)O)NC(=O)[C@H](Cc2ccccc2)NC1=O` (H-CFF[dW]KTFC-OH; disulfide 1-8): the IC50 was found to be 1.3 nM in assay [2] and 43.8 nM in assay [4].

With `CC(C)NCc1ccc(C[C@@H]2NC(=O)[C@@H](Cc3c[nH]c4ccccc34)NC(=O)[C@H](Cc3ccccc3)NC(=O)[C@H](Cc3ccccc3)NC(=O)[C@@H](N)CSSC[C@@H](C(=O)O)NC(=O)[C@H](Cc3ccccc3)NC(=O)[C@H]([C@@H](C)O)NC2=O)cc1` (H-CFF[dW][Phe(4-CH2NHiPr)]TFC-OH; disulfide 1-8), the IC50 in assay [3] and in assay [4] was above 10000 nM each time.

Regarding `CC(C)NCc1ccc(C[C@@H]2NC(=O)[C@@H](Cc3c[nH]c4ccccc34)NC(=O)[C@H](Cc3ccccc3)NC(=O)[C@H](Cc3ccccc3)NC(=O)[C@H](CCCCN)NC(=O)[C@@H](N)CSSC[C@@H](C(=O)O)NC(=O)[C@H](CO)NC(=O)[C@H]([C@@H](C)O)NC(=O)[C@H](Cc3ccccc3)NC(=O)[C@H]([C@@H](C)O)NC2=O)cc1` (H-CKFF[dW][Phe(4-CH2NHiPr)]TFTSC-OH; disulfide 1-11), the figures for the IC50 in assay [3], in assay [4] and in assay [5] were above 10000 nM, above 10000 nM and 345 nM, respectively.

As for `CC(C)NCc1ccc(C[C@@H]2NC(=O)[C@@H](Cc3c[nH]c4ccccc34)NC(=O)[C@H](Cc3ccccc3)NC(=O)[C@@H](NC(=O)[C@@H](N)Cc3ccc(O)cc3)CSSC[C@@H](C(=O)O)NC(=O)[C@H](Cc3ccccc3)NC(=O)[C@H]([C@@H](C)O)NC2=O)cc1` (H-YCF[dW][Phe(4-CH2NHiPr)]TFC-OH; disulfide 2-8), the half-inhibitory concentration (IC50) in assay [1], in assay [2], in assay [4] and in assay [5] was above 1000 nM throughout.

For `CC(C)NCc1ccc(C[C@@H]2NC(=O)[C@@H](Cc3ccc4ccccc4c3)NC(=O)[C@H](Cc3ccccc3)NC(=O)[C@H](Cc3ccccc3)NC(=O)[C@H](CCCCN)NC(=O)[C@H](NC(=O)CCc3ccc(O)cc3)CSSC[C@@H](C(=O)O)NC(=O)[C@H](CO)NC(=O)[C@H]([C@@H](C)O)NC(=O)[C@H](Cc3ccccc3)NC(=O)[C@@H]([C@@H](C)O)NC2=O)cc1` (stereo in doubt; 30), the IC50 is 845 nM in assay [1], above 1000 nM in assay [3] and 750 nM in assay [5].
